Test results taken from patent US10786475B2, “Method for preventing, treating, or improving fatty liver by administering effective amounts of azelaic acid to a subject” (Korea University Research and Business Foundation, priority 2018, dated 2020).

How the values were obtained:
Olfr544 = test: cAMP, calcium and PKA activity in Hepa1c1c-7 cells (Olfr544 activation); format: cell-based, mouse
Description: A cAMP assay estimates a production level of cAMP, which is a secondary messenger material of a GPCR receptor activated by a ligand, using a cAMP standard calibration curve. A 96 well-plate included in a cAMP Assay ELISA kit (Enzo Life science, New York, USA) was coated with a GxR IgG antibody, and cAMP in a blue solution for plotting the standard calibration curve, binds with alkaline phosphatase and turns into yellow color by the rabbit antibody. When pNpp substrate is added into the wells bound with cAMP, alkaline phosphatase is activated to cause the color changes, and a cAMP concentration may be measured through colorimetric quantification at a wavelength of 405 nm. In this experiment, Hepa1c1c-7 cells were seeded on a 96-well plate at 1×10^4 cells/well for differentiation, and treated with 50 μM of AzA and 1 μM of Forskolin (FSK), which is a positive control, for 18 hours, and then a cAMP concentration was measured according to the above-described method.

Hepa1c1c-7 cells = test: Fatty acid oxidation rate ([1-14C]palmitate) in Hepa1c1c-7 cells; format: cell-based, mouse; conditions: 100 μM AzA, 24 hours, compared with control group
Description: Hepa1c1c-7 cells were seeded on a 24-well plate at 5×10^5 cells/mL, cultured for 24 hours, treated with 100 μM of AzA, and then incubated for 24 hours. Afterward, [1-^14C]palmitate was accumulated, the cells were cultured for one hour, and the medium was collected to extract CO2 using NaOH and HCl, followed by measuring ^14CO2 using a liquid scintillation counter. As a positive control, GW7647 (1 μM) was used.

[1] = tested on: mouse primary hepatocytes; test: Fatty acid decomposition gene markers in mouse primary hepatocyte; format: cell-based
Description: To reconfirm the liver tissue lipolytic effect of an AzA, an additional experiment was performed using a mouse primary hepatocyte. […] Therefore, it was reconfirmed that an AzA stimulates fatty acid oxidation, thereby treating/preventing a fatty liver lesion.

mice fed a high-fat diet = test: Comparison of AzA-added and barley-added high-fat diets in mice; format: in vivo, mouse; conditions: 6 weeks
Description: A diet, in which an AzA (0.5 g/kg diet) or 10% (w/w) barley was added to a high-fat diet, was administered to mice for 6 weeks.

[2] = tested on: Hepa1c1c-7 cells stimulated by LPS; test: GPCR 10-pathway reporter assay in LPS-induced Hepa1c1c-7 cells; format: cell-based, mouse; conditions: 100 ng/mL LPS 1 hour, then 50 μM AzA 6 hours
Description: Mouse hepatocytes, i.e., Hepa1c1c-7 cells were seeded on a 96 well-plate at 1×10^4 cells/well and cultured for 24 hours, and transfected with a construct including a transcription factor promoter and a luciferase for 8 hours. The experiment was performed on two groups, i.e., a group with inflammation in hepatocytes caused by LPS and a group not being treated with LPS. In the non-treated control, 50 μM of AzA was treated for 6 hours, and in the experimental group, inflammation was induced by treating 100 ng/mL of LPS, the inflammation-inducing material, for 1 hour, and then 50 μM of AzA was treated for 6 hours. As a result, downstream pathway, which was activated by an AzA, was confirmed. To confirm a mechanism of an anti-inflammatory effect of an AzA, 10 transcription factors for signal transduction of GPCR were analyzed. […] Based on the Olfr544-cAMP-CREB signal transduction process of an AzA, the change of a complicated downstream signal transduction pathway system in response to GPCR activation and inhibition was examined using 10 types of transcription factors through a GPCR 10-pathway reporter assay. A GPCR 10-signal transduction pathway measurement is a method for assessing a representative signal pathway of GPCR using a reporter gene assay method, and the change of a complicated downstream signal transduction pathway system in response to the activation and inhibition of GPCR can be assessed using 10 types of transcription factors. A GPCR Signaling 10-pathway Reporter Array (QIAGEN, Netherlands) used in this example includes a transcription factor inducing downstream signal transduction and a firefly luciferase construct in each experimental group, and is based on a principle, in which luciferase activity is measured by continuously expressing a Renilla luciferase construct. The 10 types of transcription factors are as follows: ATF2/ATF3/ATF4, CREB, ELK1/SRF, FOS/JUN, MEF2, GLI, FOXO, STAT3, NFAT, and NFκB. In this example, the luciferase activity was measured using a dual luciferase assay kit (Promega, USA) and Victor™ X2 (PerkinElmer, CA, USA).

[3] = tested on: 3T3-L1 cells stimulated by LPS; test: GPCR 10-pathway reporter assay in LPS-induced 3T3-L1 cells; format: cell-based, mouse; conditions: 100 ng/mL LPS 1 hour, 50 μM AzA 6 hours
Description: 3T3-L1 cells, mouse pre-adipose cells were purchased from the Korean Cell Line Bank (Seoul, Korea). The 3T3-L1 cells were cultured in Dulbecco's modified Eagle's medium (DMEM) supplemented with 10% heat-inactivated bovine calf serum (Gibco, Grand Island, N.Y., USA) and 1% PEST under 5% CO2 at 37° C. The 3T3-L1 pre-adipose cells were seeded on a 6-well plate at 1×10^6 cells/well to differentiate into adipose cells, and cultured to a density of 100%. After 2 days, the cultured 3T3-L1 pre-adipose cells were incubated in DMEM containing 10% fetal bovine serum (FBS) and an MDI solution (0.5 mM IBMX, 0.5 μM dexamethasone and 10 μg/mL insulin) for 3 days. Subsequently, the treated cells were cultured in DMEM containing 10% FBS and 10 μg/mL insulin, and the formation of lipid droplets in cells and the degree thereof were confirmed, and based on this, the differentiation into adipose cells was confirmed.
3T3-L1 adipose cells were seeded on a 96 well-plate at 1×10^4 cells/well and cultured for 24 hours, and transfected with a construct including a transcription factor promoter and a luciferase for 8 hours. […]
To confirm a mechanism of an anti-inflammatory effect of an AzA, 10 transcription factors for signal transduction of GPCR were analyzed by the same method as described in Example 7-3.

[4] = AzA (0.5 g/kg diet) added to high-fat diet
[5] = AzA (0.5 g/kg diet) or 10% (w/w) barley added to high-fat diet, between groups

## O=C(O)CCCCCCCC(=O)O [AzA, nonanedioic acid]
Olfr544; 50 μM AzA, 18 hours, compared with control group
  cAMP concentration in the cells: significantly increased
Olfr544; AzA treatment
  PKA activity: significantly increased
Olfr544; compared with control group
  calcium concentration in the cells: significantly increased
Hepa1c1c-7 cells
  fatty acid oxidation rate: significantly increased
[1]
  Acox1 gene marker: significantly increases
  Cpt1a gene marker: significantly increases
  Ppara gene marker: significantly increases
Mice fed a high-fat diet; [4]
  ALT concentration (hepatotoxicity marker): decreased
  LDL cholesterol concentration: significantly decreased
  triglyceride concentration in liver tissue (fatty liver lesion marker): significantly decreased
Mice fed a high-fat diet; [5]
  HDL cholesterol concentration: no differences
  fasting blood glucose concentration: no differences
  total cholesterol concentration: no differences
  triglyceride concentration (blood): no differences
Mice fed a high-fat diet; AzA (0.5 g/kg diet) or 10% (w/w) barley added to high-fat diet, versus high-fat diet group
  body weight: significantly decreased
[2]
  CREB transcription factor activity (cAMP/PKA pathway): significant activities
  ELK1/SRF transcription factor activity (MAPK/ERK pathway): significant activities
  STAT3 transcription factor activity (IL-6 signaling pathway): significant activities
[3]
  FOXO transcription factor activity (PI-3 Kinase/AKT pathway): significant activity
